The structures appear in SMILES notation.

In US6794408B2, “Drechsleranol derivatives, processes for their preparation and their use” (Aventis Pharma Deutschland GmbH, priority 2002, dated 2004) one finds IC50 data, which are given here for 2 compounds.

For one assay, the target named is JNK-3 (Homo sapiens, UniProt P53779). Put plainly: JNK-3 assay (HTRF, JNK-3/GST-ATF2). The class given is biochemical. Conditions: ATP 15 μM, 37° C., 20 minutes. The procedure: The assay is carried out on a CyBio pipetter system in a 384-hole plate format. The assay contains 10 μL of sample (extract or pure substance, for example a compound of formula (II) or of formula (III)) in 3% DMSO, 10 μL of an enzyme/substrate mixture (JNK-3/GST-ATF2) and 10 μL of ATP in a final volume of 30 μL. After incubation at 37° C. for 20 minutes, 50 μL of the HTRF antibody mixture (XL665-anti-GST/(Eu)cryptate anti-P-ATF2) are added. After 120 minutes at room temperature, the signal emission of the energy transfer and of europium at 665 and 615 nm is measured after the samples have been stimulated at 340 nm in a Victor^2 (WALLAC).
Buffer I for the Dilution of JNK3, GST-ATF2, ATP:
Buffer II for the Dilution of the HTRF Reagents:
Each plate contains 16 positive controls (maximum energy transfer, buffer I instead of samples), 8 blank controls (minimum energy transfer, buffer II instead of ATP) and 8 holes which contain EDTA 200 μM.
The results are calculated as follows:
Firstly, the signal ratio=(intensity (665 nm)/intensity (615 nm)) is determined. A blank correction is then made using the following formula:
delta F(%)=[(ratio (sample)−ratio(minimum))/(ratio (minimum))]×100
The activity of the samples is then calculated in the following manner:
Inhibition (%)=100×[1−(delta F(sample)/delta F(maximum))]
On the technique in general: TR-FRET usually uses a lanthanide donor and a delayed reading to cut background.

A further assay concerns the target hCK1ε (Homo sapiens, UniProt P49674). Description: hCK1ε assay (33P-ATP, casein-coated plates). The class given is biochemical. Conditions: 0.4 μM cold ATP, 37° C., one hour. The procedure: The assay is carried out in a Jobi-Well (CyBio) and Biomek 2000 pipetter system in the 384-hole plate format. The 384-hole plates are coated with 50 μL per well of a casein solution of the concentration 100 μg/mL in coating buffer (corresponds to 5 μg of casein per well, casein Sigma) and stored overnight at 4° C. Washing four times with 90 μL of wash solution 1 (50 mM HEPES pH 7.4 and 150 mM NaCl) is then carried out. The reaction is carried out in a final volume of 50 μL. During the course of this, 10 μL of dilute natural substance extract in each case, for example a compound of formula (II) or a compound of formula (III), 20 μL of hCK1ε enzyme solution (corresponds to 29 ng of […] per well) and 20 μL of ATP solution (final concentration: 0.4 μCi of ^33P-γ-ATP radiolabeled (“hot”) and 0.4 μM of cold ATP per well) are pipetted onto the coated plates. The plates are then incubated at 37° C. for one hour. The plates are then washed four times with 75 μL of wash solution 2 (phosphoric acid, 3%) and measured for 30 seconds in a MicroBeta Trilux counter (WALLAC).
hCK1ε Enzyme Solution: 1.45 μg of Recombinant hCK1ε per mL of Kinase Buffer
ATP Solution: 20 μCi/mL of ^33P-γ-ATP and 1 μM of Cold ATP […]
The inhibition of a sample can be calculated according to the following formula: […]

Chain of JNK-3 (P53779 whole entry): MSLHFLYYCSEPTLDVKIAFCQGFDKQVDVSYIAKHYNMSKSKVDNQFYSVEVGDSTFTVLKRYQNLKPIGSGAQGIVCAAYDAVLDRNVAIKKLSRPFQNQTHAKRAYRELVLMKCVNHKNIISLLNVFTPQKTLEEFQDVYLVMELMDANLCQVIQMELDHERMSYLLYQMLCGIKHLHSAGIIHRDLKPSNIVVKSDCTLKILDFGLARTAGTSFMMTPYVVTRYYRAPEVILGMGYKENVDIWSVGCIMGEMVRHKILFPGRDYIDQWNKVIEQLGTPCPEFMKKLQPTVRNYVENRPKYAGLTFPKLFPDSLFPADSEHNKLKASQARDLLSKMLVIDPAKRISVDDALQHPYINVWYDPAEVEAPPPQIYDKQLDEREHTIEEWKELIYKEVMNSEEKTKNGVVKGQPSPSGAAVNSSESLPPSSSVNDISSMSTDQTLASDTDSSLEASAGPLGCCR
Chain of hCK1ε (P49674 whole entry): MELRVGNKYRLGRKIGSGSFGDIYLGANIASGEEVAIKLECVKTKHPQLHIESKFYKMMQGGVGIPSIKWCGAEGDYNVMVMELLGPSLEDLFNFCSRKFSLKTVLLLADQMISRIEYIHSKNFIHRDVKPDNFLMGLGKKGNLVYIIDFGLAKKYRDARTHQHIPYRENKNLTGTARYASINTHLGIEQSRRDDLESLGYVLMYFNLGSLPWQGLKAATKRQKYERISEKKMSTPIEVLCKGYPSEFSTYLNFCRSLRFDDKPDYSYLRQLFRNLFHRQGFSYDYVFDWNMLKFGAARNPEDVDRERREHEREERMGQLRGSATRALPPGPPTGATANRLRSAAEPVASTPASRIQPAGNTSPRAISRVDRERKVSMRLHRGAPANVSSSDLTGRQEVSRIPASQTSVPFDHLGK

As to `Oc1cccc2ccc3c4ccc5cccc(O)c5c4oc3c12` [Compound III], the IC50 – broadly, the point on the concentration scale where inhibition reaches its midpoint – on JNK-3 was determined as 2.8 µM.
As for `OCC(O)C(O)C(O)C(O)C(O)c1cc2c3ccc4cccc(O)c4c3oc2c2c(O)cccc12` (stereo not drawn) [Compound II], the IC50 on JNK-3 came out at 1.1 µM; against hCK1ε, 2.9 µM.
